One data set relates to NIH 3T3. As to the kind of experiment: Cell viability assay (MTT), NIH 3T3. It counts as cell-based, mouse. To be noted: 10% FBS, 1% DMSO. The method, boiled down: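 MTT viability in medium with 10% FBS and 1% DMSO, with cells seeded 24 h before treatment at 0–200 μM (11 concentrations). There were two formats: 6-day (3–15 10^3 cells, re-fed every 3 days) or 16-hour (5–10 10^4 cells). Absorbance was read at 550 nm, giving IC50 (50% cell death) as mean±SEM.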

The test system of a further data set is HeLa. As to the kind of experiment: Cell viability assay (MTT), HeLa. It counts as cell-based. The note with it: Homo sapiens, 72 h, 10% FBS, 3-day treatment, 1% DMSO. On the procedure:
Table 14: 3-day cell viability assay (MTT) in the presence of 10% Fetal Bovine Serum and 1% DMSO, in DLD1, HCT116, MDA-MB-231, MCF7 and HeLa cells. 7.5 10^3 to 1.5 10^4 cells were seeded in 48-well plates in growth medium containing 10% FBS, with or without various concentrations of test compounds. Data were analyzed and IC50s were calculated from dose-response curves using GraphPad Prism. Results summarized in the tables are mean±SEM of 1 to 7 independent experiments.
In order to determine a compound's effect on cell viability, microculture tetrazolium assays (MTT) were performed as described by Carmichael et al. (1996) with modifications. Four human tumoral cell lines, namely HCT116 colon adenocarcinoma, H460 lung carcinoma, MCF-7 and MDA-MB-231 breast carcinoma cell lines, DLD1 colorectal adenocarcinoma, HeLa adenocarcinoma, HepG2 hepatocellular carcinoma. 3 immortalized but non tumorigenic cell lines, namely NIH3T3 mouse fibroblasts (American Type Culture Collection) and primary hepatocytes (Biopredic international), cultured according to their recommendations together with Human Microvasculature Endothelial Cell line HMEC1 (National Center for Infectious Diseases). Briefly, cells were seeded in 48-well plates 24 hours before drug addition. Cells were treated with 0 to 200 μM (11 concentrations) of compound solubilized in DMSO, adjusting the final concentration of DMSO to 1% in the well. 16 hours, and three or six days after treatment, 0.5 mg/ml MTT (Sigma) was added to the medium and cells were incubated for 1-5 hours at 37° C. before solubilization of formazan crystals in 100% DMSO. Absorbance was measured using a spectrophotometer at a wavelength of 550 nm. Data was analyzed using the GraphPad Prism software (GraphPad Software, Inc.), and IC50 (dose leading to 50% cell death) was calculated from the dose-response curves.

A further data set has as its system NIH3T3. As to the kind of experiment: Boyden chamber migration assay, NIH3T3. The note with it: Mus musculus, FBS as chemoattractant. The format is cell-based, mouse. On the procedure:
(§1) FIG. 4: Migration assays. (A) Wound healing assay in REF cells. 7.6 10^4 cells were plated on coverslips 48 hours before the experiment. The cells were pre-treated for 30 min. with the compounds, and then a scrape was done using a pipette tip. The scraped coverslips in treatment medium were put under a thermostated microscope coupled to a video camera. Movies were analyzed as described in material and methods, and velocity and total distance covered by the cells were evaluated. Bar graphs represent the mean±SEM of 2 to 4 experiments. (B) Boyden chamber migration assay in HMEC1, NIH3T3 and MDA-MB-231 cells. 5 10^4 to 7.5 10^4 Cells, resuspended in culture medium with or without FBS and with different compound concentrations, were seeded in the upper Boyden blind well on top of 8 μm pore-sized filters. The ability of the cells to migrate through the filter was assayed in the absence or presence of FBS in the lower Boyden chamber. After 16 hours incubation, the medium was removed and replaced with calcein-AM containing medium. After labeling, cells were washed with HBSS and fluorescence was read in a fluorescence plate reader. Fluorescence values were normalized against the fluorescence obtained for the 1% DMSO control. The data plotted are the means±SEM of 2 to 4 independent experiments.
(§2) An essential characteristic of malignant cells is their ability to migrate, invade host tissues and to produce metastases. In order to evaluate the capacity of one compound to affect the ability of tumoral cells to migrate, migration assays were performed using highly invasive tumoral cells MDA-MB-231, endothelial cells HMEC1 or fibroblastic cells NIH3T3. This assay was performed using Falcon HTS Fluoroblock inserts. Culture medium containing Fetal Bovine Serum (FBS; which is used as a chemoattractant) was added to the plate wells and 2 10^4 to 7.5 10^4 cells resuspended in medium without FBS and with 0.1% BSA were added to each insert well. The compound of interest was added to the medium in both the upper and the lower chambers. Plates were incubated for 16 hours at 37° C. Following incubation, the medium was removed from the upper chamber and the entire insert plate was transferred to a second 24-well plate containing 4 μg/ml Calcein-AM™ in medium containing 0.1% BSA. The plates were incubated for one hour at 37° C., rinsed with Hanks Buffered Saline (HBSS). Fluorescence data were collected using Fluoroskan Ascent FL fluorescence plate reader at an excitation wavelength (Ex) of 485 nm and emission wavelength (Em) of 517 nm. Only those labelled cells that passed through the Matrigel layer and the membrane were detected. Data were analyzed using the GraphPad Prism software and IM50s (dose at which 50% inhibition of cell migration is observed) were calculated.

Another data set concerns MDA-MB-231. In words: Boyden chamber migration assay, MDA-MB-231. It counts as cell-based, human. The note with it: Homo sapiens, FBS as chemoattractant. On the procedure:
as §1, §2

Data set [1] concerns Salmonella typhimurium TA 98 and TA 100 strains. In words: Screening Ames test. The note with it: with and without S9 mix; 10 to 5000 μg per plate. The text has this: The objective of this study was to evaluate the potential of the test items to induce reverse mutation in Salmonella Typhimurium (TA 98 and TA 100 strains). The bacterial reverse mutation test is able to identify substances that cause point mutations, by substitution, addition or deletion of one or a few DNA base-pairs. Mutagenic substances can induce reversion in histidine deficient strains which are then able to grow and form colonies in a histidine-limited medium, while non-reverted cannot. This test is performed in the absence and presence of a rat liver metabolising system (S9 mix). Three known mutagens are used to check sensitivity of test system: sodium azide, 2-nitrofluorene and 2-anthramine.
The dose levels per plate were of 10 to 5000 μg. A preliminary toxicity test was performed followed by the mutagenecity test per se.

Setting [2] is: Mus musculus, NIH3T3, 16 h, 16-hours treatment.
Where [3] appears, read: Mus musculus, NIH3T3, 144 h, 6-day treatment.

On to `Cl.Cl.O=c1cc(CN2CCOCC2)occ1OCCCCCSc1ccnc2cc(C(F)(F)F)ccc12` [EHT 1864, 5-(5-(7-(Trifluoromethyl)quinolin-4-ylthio)pentyloxy)-2-(morpholinomethyl)-4H-pyran-4-one dihydrochloride], for which the IC50 is 69.3 µM in the data set with NIH 3T3 (setting [2]); 19.8 µM in the data set with NIH 3T3 (setting [3]); 23.3 µM with HeLa; 20.4 ± 3.5 µM with NIH3T3 (NIH3T3, 16 hours); 5.1 ± 1.9 µM in the data set with MDA-MB-231 (MDA-MB-231, 16 hours). Also, in data set [1], the mutagenic activity result is reported as “did not show any mutagenic activity”.

On to `CN1CCN(Cc2cc(=O)c(OCCCCCSc3ccnc4cc(C(F)(F)F)ccc34)co2)CC1.Cl.Cl.Cl` [EHT 9241, 5-(5-(7-(Trifluoromethyl)quinolin-4-ylthio)pentyloxy)-2-((4-methylpiperazin-1-yl)methyl)-4H-pyran-4-one trihydrochloride], for which the IC50 was found to be 8.7 µM with NIH 3T3 (6-day treatment, trihydrochloride); 25.6 µM with NIH 3T3 (setting [2]); 5.7 µM in the data set with HeLa; 4.7 ± 0.6 µM in the data set with NIH3T3 (NIH3T3, 16 h); 2.7 ± 1 µM with MDA-MB-231 (MDA-MB-231, 16 h). Moreover, the mutagenic activity result in data set [1] is on record as “did not show any mutagenic activity”.

On to `Cl.Cl.Cl.O=c1cc(CN2CCNCC2)occ1OCCCCCSc1ccnc2cc(C(F)(F)F)ccc12` [EHT 8560, 5-(5-(7-(Trifluoromethyl)quinolin-4-ylthio)pentyloxy)-2-((piperazin-1-yl)methyl)-4H-pyran-4-one trihydrochloride], for which the IC50 with NIH 3T3 (setting [3]) was 5.1 µM; in the data set with HeLa it was 4.4 µM; in the data set on NIH3T3 (NIH3T3, 16 h), 10 ± 0.6 µM; in the data set on MDA-MB-231 (MDA-MB-231, 16 h) it was 4.5 ± 2.4 µM. The mutagenic activity result in data set [1] is reported as “did not show any mutagenic activity”.

The record behind these values is patent publication US7514432B2, “Compounds and methods of treating cell proliferative diseases, retinopathies and arthritis” (Exonhit Therapeutics SA, priority 2003, dated 2009).
